Molecular target: T1, catalytic domain of human PTP1b (residues 1-299) (Homo sapiens, UniProt P18031)
T1 construct: catalytic domain of human PTP1b (residues 1-299); made in house; host or cells: E. coli
T1 sequence (P18031 1-299): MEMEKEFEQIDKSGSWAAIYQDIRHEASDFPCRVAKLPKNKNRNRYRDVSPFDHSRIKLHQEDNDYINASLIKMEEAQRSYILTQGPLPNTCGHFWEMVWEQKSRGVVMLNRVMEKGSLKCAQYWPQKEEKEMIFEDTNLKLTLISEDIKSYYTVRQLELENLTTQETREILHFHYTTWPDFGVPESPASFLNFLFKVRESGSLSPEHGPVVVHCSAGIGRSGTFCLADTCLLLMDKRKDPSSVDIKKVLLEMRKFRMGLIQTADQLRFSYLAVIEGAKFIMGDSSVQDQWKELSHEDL
Experiment: PTP1b pNPP hydrolysis inhibition assay
Format: biochemical
Conditions: pNPP substrate, 25° C., pH 7.0, three fixed inhibitor concentrations; read-out: Ki Micromolar
Procedure: The p-nitrophenyl phosphate (pNPP) substrate was purchased from Sigma. PTPase activity was measured at room temperature (25° C.) in a 200 ul reaction mixture with various concentrations of substrate. Reactions began with enzyme addition and were quenched after 2-3 minutes with 1N NaOH. Background hydrolysis of pNPP was measured without addition of enzyme. […] All experiments were performed in 50 mM 3,3-dimethylglutarate buffer (pH 7.0), with 10 mM DTT, 1 mM EDTA, and with the ionic strength adjusted to 0.15 M with NaCl. All solutions were prepared in distilled, deionized water. For initial evaluation of each compound, percent inhibition was determined for two concentrations of compound (for example at 200 uM and 20 uM) at a fixed pNPP concentration.
Percent inhibition was determined following background subtraction of the non-enzymatic hydrolysis rate compared to no inhibitor (DMSO only) controls. Inhibition constants and inhibition patterns were evaluated using the direct curve-fitting program GraFit (Erithacus Software Limited).

Compound | Ki
O=C1CN(c2csc(-c3ccccc3)c2)S(=O)(=O)N1 [5-(5-phenyl-3-thienyl)-1,2,5-thiadiazolidin-3-one 1,1-dioxide] | 150 µM
O=C1CN(c2csc(-c3ccccc3)c2Br)S(=O)(=O)N1 [5-(4-bromo-5-phenyl-3-thienyl)-1,2,5-thiadiazolidin-3-one 1,1-dioxide] | 18 µM
O=C1CN(c2csc(-c3cccc(NC4CCCCC4)c3)c2Cl)S(=O)(=O)N1 [5-{4-chloro-5-[3-(cyclohexylamino)phenyl]-3-thienyl}-1,2,5-thiadiazolidin-3-one 1,1-dioxide] | 14 µM
CC1C(=O)NS(=O)(=O)N1c1csc(-c2ccccc2)c1 (stereo not shown) [4-methyl-5-(5-phenyl-3-thienyl)-1,2,5-thiadiazolidin-3-one 1,1-dioxide] | > 1000 µM
Cc1c(N2CC(=O)NS2(=O)=O)csc1-c1ccccc1 [5-(4-methyl-5-phenyl-3-thienyl)-1,2,5-thiadiazolidin-3-one 1,1-dioxide] | 41 µM
Cc1c(N2CC(=O)NS2(=O)=O)csc1-c1cccc([N+](=O)[O-])c1 [5-[4-methyl-5-(3-nitrophenyl)-3-thienyll-1,2,5-thiadiazolidin-3-one 1,1-dioxide] | 34 µM
Cc1c(N2CC(=O)NS2(=O)=O)csc1-c1cccc(NC2CC(C)(C)CC(C)(C)C2)c1 | 15 µM

The next compounds have a lower Ki than those just listed; values first:

Ki | Compound
4 µM | Cc1c(N2CC(=O)NS2(=O)=O)csc1-c1cccc(NC2CCN(S(=O)(=O)Cc3ccccc3)CC2)c1 [5-[5-(3-{[1-(benzylsulfonyl)piperidine-4-yl]amino}phenyl)-4-methyl-3-thienyl]-1,2,5-thiadiazolidin-3-one 1,1-dioxide]
12 µM | O=C1CN(c2csc(-c3cccc(NC4CCCCC4)c3)c2)S(=O)(=O)N1 [5-5-[3-(cyclohexylamino)phenyl]-3-thienyl}-1,2,5-thiadiazolidin-3-one 1,1-dioxide]
1.7 µM | NS(=O)(=O)N(c1cccc(-c2scc(N3CC(=O)NS3(=O)=O)c2Cl)c1)C1CCCCC1 [N-{3-[3-chloro-4-(1,1-dioxido-4-oxo-1,2,5-thiadiazolidin-2-yl)-2-thienyl]phenyl}-N-cyclohexylsulfamide]

Source: patent US20080004325A1, “PTP1B inhibitors” (Wyeth, priority 2006, published 2008)
